Earlier results, collected in publication PMC7589057, “Synthesis of Hantzsch Adducts as Cholinesterases and Calcium Flux inhibitors, Antioxidants and Neuroprotectives” (International Journal of Molecular Sciences, 2020).
Read-outs that look alike come from different tables or passages of the source.

Experiments:
SH-SY5Y cells [1] = system: SH-SY5Y cells; design: method as in PMID 27736061; details: 0.1 µM, cited from earlier work
SH-SY5Y cells [2] = system: SH-SY5Y cells; design: method as in PMID 27736061; details: 0.1 µM; cited from earlier work

## COc1ccc2[nH]cc(CCNC(C)=O)c2c1 [MEL, melatonin]
SH-SY5Y cells [1]; listed as Melatonin
  O/R (%) neuroprotection: 66.6 ± 3.01 ***[10] %
SH-SY5Y cells [1]; listed as melatonin
  O/R (%) neuroprotection: 66.6%
SH-SY5Y cells [2]
  H2O2 (%) neuroprotection: 55.4 ± 7.73 *[10] %
